Results on one molecule are retold here after US20100273769A1, “COMPOSITION AND METHOD FOR THE TREATMENT OF PARKINSON'S DISEASE” (priority 2009, published 2010).

Data set [1] deals with R1441C LRRK2 transgenic C. elegans. Put plainly: Food-sensing (slowing) response in LRRK2 transgenic C. elegans. Format: in vivo. As to conditions: Caenorhabditis elegans, 96 h; exposure through larval stages to adult stage day 4; read-out: Half-maximal restoration of the slowing response after food exposure. As to the method: Dopaminergic neurons in C. elegans are involved in food sensing behavior such that in the absence of food worms move more rapidly, as assessed by determining their bending frequency on an agar plate not supplied with food. In an established assay the animals are then exposed to food, and the difference in motility is recorded in the form of bending frequency [Sawin et al., Neuron 26, 619-631 (2000)]. […] In approximate synchrony with the dopaminergic neurodegeneration this slowing response is essentially eliminated after 4 days. […] The slowing response can be reconstituted to a substantial degree by supplementation with dopamine, confirming that the phenotype is due to loss of dopaminergic input (FIG. 5).
The clear-cut functional phenotype of this model can be used to determine the efficacy of LRRK2 kinase inhibitors and the accurate determination of their potency in a biological context. […] The potency is expressed as the half-maximal restoration of the slowing response. […]
The functional consequence of dopaminergic neurodegeneration was assayed using the food-sensing response resulting in a slowing of motility after food exposure as assessed by the frequency of body bending within 20 second intervals in groups of 10 animals [Sawin et al., Neuron 26, 619-631 (2000)]. […]

The target in data set [2] is Cdk1 (Homo sapiens, UniProt P06493). Put plainly: Kinase specificity, Cdk1. It counts as biochemical. As to conditions: 100 μM ATP.
For data set [3] the following is noted: rodents, in vivo.
For data set [4], the target named is T1, wildtype human LRRK2 (Homo sapiens, UniProt Q5S007).
T1 construct: human LRRK2 protein fragment encompassing amino acids 1326 to 2527; GST; made in house
T1 sequence (Q5S007 1326-2527): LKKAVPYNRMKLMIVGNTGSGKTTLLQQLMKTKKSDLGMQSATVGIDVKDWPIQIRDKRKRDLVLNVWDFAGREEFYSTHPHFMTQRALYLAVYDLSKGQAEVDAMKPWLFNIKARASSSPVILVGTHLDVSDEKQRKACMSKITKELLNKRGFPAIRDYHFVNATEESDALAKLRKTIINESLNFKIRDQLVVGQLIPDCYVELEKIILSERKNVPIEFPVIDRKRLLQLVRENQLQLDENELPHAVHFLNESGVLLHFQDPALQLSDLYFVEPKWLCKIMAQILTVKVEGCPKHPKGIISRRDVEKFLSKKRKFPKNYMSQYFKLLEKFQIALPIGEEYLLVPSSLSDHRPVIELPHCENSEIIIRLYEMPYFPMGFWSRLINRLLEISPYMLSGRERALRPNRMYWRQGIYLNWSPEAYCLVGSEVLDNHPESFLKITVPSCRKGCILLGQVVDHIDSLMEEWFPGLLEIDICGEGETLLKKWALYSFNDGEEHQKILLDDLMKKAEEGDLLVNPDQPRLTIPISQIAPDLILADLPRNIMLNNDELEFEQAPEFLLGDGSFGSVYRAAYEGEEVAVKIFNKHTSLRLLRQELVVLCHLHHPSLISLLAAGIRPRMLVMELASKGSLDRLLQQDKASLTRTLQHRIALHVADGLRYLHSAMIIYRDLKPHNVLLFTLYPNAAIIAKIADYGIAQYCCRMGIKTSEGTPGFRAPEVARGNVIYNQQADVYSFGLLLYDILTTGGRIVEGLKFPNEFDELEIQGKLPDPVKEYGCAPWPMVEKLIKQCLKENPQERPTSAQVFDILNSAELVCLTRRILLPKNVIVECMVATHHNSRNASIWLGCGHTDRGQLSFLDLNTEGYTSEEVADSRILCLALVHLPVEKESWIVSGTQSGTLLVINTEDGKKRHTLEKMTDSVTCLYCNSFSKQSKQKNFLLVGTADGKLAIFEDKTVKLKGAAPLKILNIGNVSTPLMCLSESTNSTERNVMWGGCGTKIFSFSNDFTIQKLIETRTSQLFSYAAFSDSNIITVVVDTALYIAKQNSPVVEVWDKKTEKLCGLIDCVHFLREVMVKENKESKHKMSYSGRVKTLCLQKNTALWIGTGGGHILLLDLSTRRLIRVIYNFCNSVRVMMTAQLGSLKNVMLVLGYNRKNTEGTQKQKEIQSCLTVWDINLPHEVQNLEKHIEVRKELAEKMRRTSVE
Put plainly: Adapta assay, inhibition of wildtype human LRRK2 kinase fragment with LRRKtide. Format: biochemical.

Read-outs that look alike come from different tables or passages of the source.

Cdk1, sequence (P06493 whole entry, species assumed): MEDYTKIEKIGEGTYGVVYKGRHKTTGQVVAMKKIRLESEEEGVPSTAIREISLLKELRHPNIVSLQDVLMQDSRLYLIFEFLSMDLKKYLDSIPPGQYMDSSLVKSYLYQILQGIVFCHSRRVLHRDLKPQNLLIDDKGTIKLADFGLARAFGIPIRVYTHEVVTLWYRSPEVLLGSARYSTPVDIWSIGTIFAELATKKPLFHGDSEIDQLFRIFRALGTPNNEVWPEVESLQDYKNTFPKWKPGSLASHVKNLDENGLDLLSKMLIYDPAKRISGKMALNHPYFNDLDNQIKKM
Cdk1, sequence (P14635 whole entry partner, species assumed): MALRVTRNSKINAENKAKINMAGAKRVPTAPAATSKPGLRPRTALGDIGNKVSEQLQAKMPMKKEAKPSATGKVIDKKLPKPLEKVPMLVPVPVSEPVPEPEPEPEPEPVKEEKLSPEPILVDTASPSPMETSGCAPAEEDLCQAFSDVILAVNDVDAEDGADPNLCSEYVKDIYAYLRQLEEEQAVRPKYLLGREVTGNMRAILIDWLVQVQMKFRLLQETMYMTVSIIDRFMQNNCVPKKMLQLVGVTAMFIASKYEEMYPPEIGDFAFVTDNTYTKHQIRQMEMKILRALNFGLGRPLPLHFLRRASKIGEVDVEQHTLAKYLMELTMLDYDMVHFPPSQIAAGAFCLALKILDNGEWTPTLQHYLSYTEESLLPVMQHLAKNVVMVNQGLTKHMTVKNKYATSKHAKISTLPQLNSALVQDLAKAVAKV

Take `CNC(=O)[C@@]1(N)CC2OC1(C)n1c3ccccc3c3c4c(c5c6ccccc6n2c5c31)C(=O)NC4` (stereo partly drawn) [Compound 3]: in data set [1], the EC50 amounted to 30 nM. In addition, the IC50 is 17 nM in data set [2]; 1.1 nM in data set [4] (100 μM ATP, read-out: LRRK2); at most 1 nM in data set [4] (100 microM ATP, read-out: LRRK2 inhibitory potency (essentially receptor-limited)). Further, the “Plasma concentration sustained without detectable toxicity” value in data set [3] was in the range of 600 to 800 nM. In data set [4] (100 μM ATP, FIG. 3A), the “IC50 relative to nominal kinase concentration, wild-type LRRK2” value was “substantially below the nominal concentration of the kinase itself”.
